Values joined by “and” are separate entries in the source; they are usually repeats but may differ in a detail not shown here. Equal values may be shown once. “Also recorded” adds a separate entry of the source.
Tests used:
[1] = patients administered therewith; cited from earlier work
[2] = test system: cancer cells; details: photo-irradiation; cited from earlier work
[3] = Photophysical characteristics: generation of singlet oxygen (near infrared emission); format: physicochemical; details: excitation at 563 nm, emission at 1270 nm in near infrared light
Source text: Also, the generation of singlet oxygen was confirmed with excitation at 563 nm and emission at 1270 nm in near infrared light.

[4] = In vivo pharmacokinetics of zinc coproporphyrin-I in HeLa tumor-bearing nude mice (tissue fluorescence); set-up: species or system (BALB/c) nude mouse; details: 25 mg/kg intravenous in physiological saline, back and muscle, excitation 405 nm, fluorescence 580 nm
Protocol: In the back of a (BALB/c) nude mouse, 5×10^6 HeLa cells in 0.1 ml were transplanted intradermally. When the tumor grew to 12-17 mm diameter, 25 mg/kg of zinc coproporphyrin-I in physiological saline was intravenously injected, and mice were sacrificed at each time shown in FIG. 2, and then zinc coproporphyrin-I in 3 kinds of tissues (tumor, back and muscle) was measured with excitation at 405 nm and fluorescence at 580 nm.

[5] = Photophysical characteristics: absorption spectrum; format: physicochemical
Source text: Measurement of Photophysical Characteristics of Zinc Coproporphyrin-I

[6] = Anti-cellular activity with and without light irradiation, in vitro system using mice; format: cell-based
Source text: (§1) Thus, after systemic administration of these compounds systemically, cancer tissues can be selectively killed, and the cancer can be treated without side effects by irradiating light only on the cancer tissues. Therefore, these compounds can be used as photodynamic therapy agents not only for surface cancer types (for example, breast cancer, skin cancer, esophageal cancer) but also deep cancer types (for example, gastric cancer, lung cancer).

[7] = test system: HeLa tumor; test: Drug efficacy of the agent for photodynamic therapy: laser irradiation of HeLa tumor in nude mouse, HE-stained sections; details: 203 mg/kg i.v.; YAG-Dye laser 580 nm after 28 minutes, 100 J/cm^2; tumors excised 24 hours after irradiation
Protocol: To the back of a (BALB/c) nude mouse, 5×10^6 HeLa cells in 0.1 ml were intradermally transplanted. […] The wavelength was 580 nm. The light was emitted horizontally to the side of the tumor. To observe the necrosis layer, the tumors were excised out at 24 hours after the laser irradiation, fixed in 20% formaldehyde solution and embedded in paraffin. Sections were prepared, stained with HE and observed.

[8] = test system: DNA; test: DNA breakage under light irradiation; format: biochemical; details: under the irradiation of 350 nm light
Source text: as §1

Question: With `C=CC1=C(C)C2=CC3=C(/C=C/NO)C(C)(O)C(=CC4=NC(=CC5=NC(=CC1=N2)C(C)=C5CCC(=O)N[C@@H](CC(=O)[O-])C(=O)[O-])C(CCC(=O)N[C@@H](CC(=O)[O-])C(=O)[O-])=C4C)N3.[Na+].[Na+].[Na+].[Na+]` (stereo partly shown) [ATX-S10 (Na)] as the compound, how does the “complete excretion period from the body” value [1] read?
Answer: 7 to 8 h

Question: Which “toxic effect on cancer cells compared to that of hematoporphyrin” value [2] does the source give for coproporphyrin-III here?
Answer: superior toxic effect

Question: Which “generation of singlet oxygen” value [3] does the source give for zinc coproporphyrin-I here?
Answer: confirmed

Question: What about the “time until excreted out of the body” value [4] of the same compound?
Answer: 3 to 4 days

Question: What about the absorption peaks [5] of the same compound?
Answer: 403 nm and 535 nm and 571 nm

Question: What about the “anti-cellular activity under the irradiation of light” value ([6]; irradiation of light which induces DNA cleavage) of the same compound?
Answer: strong anti-cellular activity

Question: What about the “anti-cellular activity by themselves” value ([6]; without light irradiation) of the same compound?
Answer: do not demonstrate any anti-cellular activity

Question: And the “cells appearing to be dead” value [7]?
Answer: about 10 % of the total cells

Question: And the “histological observations after light irradiation of the HeLa tumor” value [7]?
Answer: thrombus formation in the capillary vessels and hemorrhage inside of the tissues; also recorded: anucleated cells, chromatin condensed cells and cells with ruptured vacuoles were seen

Question: And the DNA breakage [8]?
Answer: can break DNA efficiently

From patent US20080139804A1, “Photosensitive Compounds” (priority 2005, published 2008)
